# In ChEMBL document CHEMBL3351790, “Inhibitory effects of p-alkylaminophenol on melanogenesis” (Bioorg Med Chem, 2014):
# The source made the active and inactive calls. No cut-off for these calls is given here.
# How the values were obtained:
# Liver microsome = assay: Inhibition of lipid peroxidation in rat liver microsomes; type: functional
# B16 [1] = assay: Inhibition of alpha-MSH-induced TRP-1 mRNA expression in mouse B16 cells at 1 uM after 3 days by RT-PCR analysis relative to control; type: functional; settings: B16, 72 h
# B16 [2] = assay: Inhibition of alpha-MSH-induced MITF mRNA expression in mouse B16 cells at 1 uM after 3 days by RT-PCR analysis relative to control; type: functional; settings: B16, 72 h
# B16 [3] = assay: Inhibition of alpha-MSH-induced ERK phosphorylation in mouse B16 cells at 1 uM after 3 days by Western blotting relative to control; type: cell-based
# B16 [4] = assay: Inhibition of alpha-MSH-induced MITF protein expression in mouse B16 cells after 3 days by Western blotting relative to control; type: functional, cell-based
# B16 [5] = assay: Inhibition of alpha-MSH-induced TRP-2 protein expression in mouse B16 cells at 0.1 to 1 uM after 3 days by Western blotting relative to control; type: functional, cell-based
# [6] = biological target: T1, Tyrosinase (Mus musculus) (UniProt P11344); assay: Inhibition of tyrosinase in mouse B16 cells using L-tyrosine as substrate preincubated at 50 uM for 20 mins by spectrophotometry relative to control; type: cell-based
# T1 sequence (whole entry): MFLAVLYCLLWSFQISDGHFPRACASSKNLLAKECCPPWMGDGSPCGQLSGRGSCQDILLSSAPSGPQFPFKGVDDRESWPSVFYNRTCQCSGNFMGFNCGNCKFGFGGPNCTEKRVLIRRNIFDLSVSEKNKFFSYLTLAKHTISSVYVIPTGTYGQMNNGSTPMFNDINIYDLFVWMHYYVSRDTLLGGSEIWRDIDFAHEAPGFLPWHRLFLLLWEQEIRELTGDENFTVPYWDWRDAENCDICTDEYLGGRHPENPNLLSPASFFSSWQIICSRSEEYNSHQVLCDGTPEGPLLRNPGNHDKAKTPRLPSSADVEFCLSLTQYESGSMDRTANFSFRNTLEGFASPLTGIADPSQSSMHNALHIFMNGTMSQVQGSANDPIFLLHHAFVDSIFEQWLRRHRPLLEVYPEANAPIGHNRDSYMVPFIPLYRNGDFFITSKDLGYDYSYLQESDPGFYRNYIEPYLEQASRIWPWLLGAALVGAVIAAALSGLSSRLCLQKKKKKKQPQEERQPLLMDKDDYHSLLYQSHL
# B16 [7] = assay: Inhibition of alpha-MSH-induced TRP-1 protein expression in mouse B16 cells after 3 days by Western blotting relative to control; type: functional, cell-based
# B16 [8] = assay: Inhibition of alpha-MSH-induced melanin production in mouse B16 cells at 1 uM after 3 days by spectrophotometry relative to control; type: functional; settings: B16, 72 h
# B16 [9] = assay: Cytotoxicity against mouse B16 cells at 1 uM after 72 hrs by MTT assay; type: cell-based; settings: b16, 72 h
# B16 [10] = assay: Inhibition of alpha-MSH-induced ERK phosphorylation in mouse B16 cells at 0.4 uM after 3 days by Western blotting relative to control; type: cell-based
# B16 [11] = assay: Inhibition of alpha-MSH-induced tyrosinase mRNA expression in mouse B16 cells at 0.1 to 1 uM after 3 days by RT-PCR analysis relative to control; type: functional, cell-based
# B16 [12] = assay: Inhibition of alpha-MSH-induced TRP-2 mRNA expression in mouse B16 cells at 0.1 to 1 uM after 3 days by RT-PCR analysis relative to control; type: functional, cell-based
# B16 [13] = assay: Inhibition of alpha-MSH-induced ERK phosphorylation in mouse B16 cells at 0.1 uM after 3 days by Western blotting relative to control; type: cell-based
# B16 [14] = assay: Inhibition of alpha-MSH-induced tyrosinase protein expression in mouse B16 cells at 0.1 to 1 uM after 3 days by Western blotting relative to control; type: functional, cell-based
# B16 [15] = assay: Inhibition of alpha-MSH-induced AKT phosphorylation in mouse B16 cells at 0.1 to 1 uM after 3 days by Western blotting relative to control; type: cell-based
# B16 [16] = assay: Inhibition of alpha-MSH-induced melanin production in mouse B16 cells at 0.1 to 0.4 uM after 3 days by spectrophotometry relative to control; type: functional, cell-based
structure (smiles),measurement,setting,value
CC1=C(/C=C/C(C)=C/C=C/C(C)=C/C(=O)O)C(C)(C)CCC1 [TRETINOIN],IC50,Liver microsome,3200 nM
CCCCCCCCCCNc1ccc(O)cc1,IC50,Liver microsome,15 nM
same,inhibition at 1 µM,B16 [1],50%
same,inhibition at 1 µM,B16 [2],68%
same,inhibition,B16 [3],88%
same,inhibition,B16 [4],Dose-dependent effect
same,inhibition,B16 [5],inactive
same,inhibition,[6],7%
same,inhibition,B16 [7],Dose-dependent effect
same,inhibition at 1 µM,B16 [8],34%
same,Activity,B16 [9],Non-toxic
same,inhibition,B16 [10],75%
same,inhibition,B16 [11],inactive
same,inhibition,B16 [12],inactive
same,inhibition,B16 [13],22%
same,inhibition,B16 [14],inactive
same,inhibition,B16 [15],inactive
same,inhibition,B16 [16],inactive
CCCCCCNc1ccc(O)cc1,IC50,Liver microsome,33 nM
CCCCCCCCCCCCNc1ccc(O)cc1,IC50,Liver microsome,15.5 nM
CC1=C(/C=C/C(C)=C/C=C/C(C)=C/C(=O)Nc2ccc(O)cc2)C(C)(C)CCC1 [FENRETINIDE],IC50,Liver microsome,5000 nM
CCCCCCCCNc1ccc(O)cc1,IC50,Liver microsome,14 nM
